Columns and labels:
Experiment in all cases: In vitro antifungal activity, microbroth dilution MIC
Format in all cases: cell-based
[1] = test system: Candida parapsitosis A. 7330; details: 4 to 48 hours; for Minimal inhibitory concentration(MIC), C. parapsitosis A. 7330: RPMI-1640, 35° C., no growth observed
How it was run: (§1)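 Broth microdilution adapted from NCCLS M27, in RPMI-1640 with 0.165 M MOPS, pH 7.0. Yeast or mould inoculum at 2×10^3 CFU/ml was mixed 1:1 with DMSO-derived compound solutions (200 to 0.10 μg/ml before mixing) and incubated at 35 °C for 4 to 48 h. MIC was the concentration showing no growth.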

[2] = test system: Candida krusei K. 11655; details: 4 to 48 hours; for Minimal inhibitory concentration(MIC), C. krusei K. 11655: RPMI-1640, 35° C., no growth observed
How it was run: as §1

[3] = test system: Candida pseudotropicalis K. 11658; details: 4 to 48 hours; for Minimal inhibitory concentration(MIC), C. pseudotropicalis K. 11658: RPMI-1640, 35° C., no growth observed
How it was run: as §1

[4] = test system: Candida albicans IFO. 1385; details: 4 to 48 hours; for Minimal inhibitory concentration(MIC), C. albicans IFO. 1385: RPMI-1640, 35° C., no growth observed
How it was run: as §1

[5] = test system: Trichophyton mentagrophytes B. 32663; details: 4 to 48 hours; for Minimal inhibitory concentration(MIC), T. mentagrophytes B. 32663: RPMI-1640, 35° C., no growth observed
How it was run: as §1

[6] = test system: Candida albicans C1-2; details: 4 to 48 hours; for Minimal inhibitory concentration(MIC), C. albicans C1-2: RPMI-1640, 35° C., no growth observed
How it was run: as §1

[7] = test system: Cryptococcus neoformans B. 42419; details: 4 to 48 hours; for Minimal inhibitory concentration(MIC), Cry. neoformans B. 42419: RPMI-1640, 35° C., no growth observed
How it was run: as §1

[8] = test system: Aspergillus furnigatus B. 19119; details: 4 to 48 hours; for Minimal inhibitory concentration(MIC), A furnigatus B. 19119: RPMI-1640, 35° C., no growth observed
How it was run: as §1

[9] = test system: Candida albicans A. 10231; details: 4 to 48 hours; for Minimal inhibitory concentration(MIC), C. albicans A. 10231: RPMI-1640, 35° C., no growth observed
How it was run: as §1

[10] = test system: Candida tropicalis A. 13803; details: 4 to 48 hours; for Minimal inhibitory concentration(MIC), C. tropicalis A. 13803: RPMI-1640, 35° C., no growth observed
How it was run: as §1

[11] = test system: Aspergillus niger A. 16404; details: 4 to 48 hours; for Minimal inhibitory concentration(MIC), A. niger A. 16404: RPMI-1640, 35° C., no growth observed
How it was run: as §1

[12] = test system: Trichophyton mentagrophytes A. 9129; details: 4 to 48 hours; for Minimal inhibitory concentration(MIC), T. mentagrophytes A. 9129: RPMI-1640, 35° C., no growth observed
How it was run: as §1

[13] = test system: Torulopsis glabrata B. 16205; details: 4 to 48 hours; for Minimal inhibitory concentration(MIC), T. glabrata B. 16205: RPMI-1640, 35° C., no growth observed
How it was run: as §1

[14] = test system: Cryptococcus neoformans IFM. 40092; details: 4 to 48 hours; for Minimal inhibitory concentration(MIC), Cry. neoformans IFM. 40092: RPMI-1640, 35° C., no growth observed
How it was run: as §1

[15] = test system: Cryptococcus neoformans A. 34144; details: 4 to 48 hours; for Minimal inhibitory concentration(MIC), Cry. neoformans A. 34144: RPMI-1640, 35° C., no growth observed
How it was run: as §1

SMILES: FC(Oc1ccc(OCC2COC(Cn3ccnc3)(c3ccc(F)cc3F)O2)cc1)=C(c1ccc2c(c1)OCO2)C(F)(F)F (mixture of isomers) [Ex. 112]
- Minimal inhibitory concentration(MIC), C. parapsitosis A. 7330 [1]: >100 µg/mL
- Minimal inhibitory concentration(MIC), C. krusei K. 11655 [2]: >100 µg/mL
- Minimal inhibitory concentration(MIC), C. pseudotropicalis K. 11658 [3]: 25.0 µg/mL
- Minimal inhibitory concentration(MIC), C. albicans IFO. 1385 [4]: 1.56 µg/mL
- Minimal inhibitory concentration(MIC), T. mentagrophytes B. 32663 [5]: 3.13 µg/mL
- Minimal inhibitory concentration(MIC), C. albicans C1-2 [6]: 12.5 µg/mL
- Minimal inhibitory concentration(MIC), Cry. neoformans B. 42419 [7]: 1.56 µg/mL
- Minimal inhibitory concentration(MIC), A furnigatus B. 19119 [8]: >100 µg/mL
- Minimal inhibitory concentration(MIC), C. albicans A. 10231 [9]: 25.0 µg/mL
- Minimal inhibitory concentration(MIC), C. tropicalis A. 13803 [10]: 100 µg/mL
- Minimal inhibitory concentration(MIC), A. niger A. 16404 [11]: >100 µg/mL
- Minimal inhibitory concentration(MIC), T. mentagrophytes A. 9129 [12]: 6.25 µg/mL
- Minimal inhibitory concentration(MIC), T. glabrata B. 16205 [13]: 50.0 µg/mL
- Minimal inhibitory concentration(MIC), Cry. neoformans IFM. 40092 [14]: 0.39 µg/mL
- Minimal inhibitory concentration(MIC), Cry. neoformans A. 34144 [15]: 1.56 µg/mL

SMILES: CCOc1ccc(C=C(F)OCC2COC(Cn3ccnc3)(c3ccc(F)cc3F)O2)cc1 (mixture of isomers) [Ex. 44]
- Minimal inhibitory concentration (MIC) ([1]; C. parapsitosis A. 7330, RPMI-1640, 35° C.): 12.5 µg/mL
- Minimal inhibitory concentration (MIC) ([2]; C. krusei K. 11655, RPMI-1640, 35° C.): 12.5 µg/mL
- Minimal inhibitory concentration (MIC) ([3]; C. pseudotropicalis K. 11658, RPMI-1640, 35° C.): 6.25 µg/mL
- Minimal inhibitory concentration (MIC) ([4]; C. albicans IFO. 1385, RPMI-1640, 35° C.): 0.39 µg/mL
- Minimal inhibitory concentration (MIC) ([5]; T. mentagrophytes B. 32663, RPMI-1640, 35° C.): 1.56 µg/mL
- Minimal inhibitory concentration (MIC) ([6]; C. albicans C1-2, RPMI-1640, 35° C.): 25.0 µg/mL
- Minimal inhibitory concentration (MIC) ([7]; Cry. neoformans B. 42419, RPMI-1640, 35° C.): 1.56 µg/mL
- Minimal inhibitory concentration (MIC) ([8]; A furnigatus B. 19119, RPMI-1640, 35° C.): 12.5 µg/mL
- Minimal inhibitory concentration (MIC) ([9]; C. albicans A. 10231, RPMI-1640, 35° C.): 25.0 µg/mL
- Minimal inhibitory concentration (MIC) ([10]; C. tropicalis A. 13803, RPMI-1640, 35° C.): 50.0 µg/mL
- Minimal inhibitory concentration (MIC) ([11]; A. niger A. 16404, RPMI-1640, 35° C.): >100 µg/mL
- Minimal inhibitory concentration (MIC) ([12]; T. mentagrophytes A. 9129, RPMI-1640, 35° C.): 6.25 µg/mL
- Minimal inhibitory concentration (MIC) ([13]; T. glabrata B. 16205, RPMI-1640, 35° C.): 6.25 µg/mL
- Minimal inhibitory concentration (MIC) ([14]; Cry. neoformans IFM. 40092, RPMI-1640, 35° C.): 0.39 µg/mL
- Minimal inhibitory concentration (MIC) ([15]; Cry. neoformans A. 34144, RPMI-1640, 35° C.): 1.56 µg/mL

SMILES: FC(=C(c1ccc(F)cc1)C(F)(F)F)N1CCN(c2ccc(OCC3COC(Cn4ccnc4)(c4ccc(Cl)cc4Cl)O3)cc2)CC1 (mixture of isomers) [Ex. 135]
- Minimal inhibitory concentration(MIC), C. parapsitosis A. 7330 [1]: 1.56 µg/mL
- Minimal inhibitory concentration(MIC), C. krusei K. 11655 [2]: 1.56 µg/mL
- Minimal inhibitory concentration(MIC), C. pseudotropicalis K. 11658 [3]: 1.56 µg/mL
- Minimal inhibitory concentration(MIC), C. albicans IFO. 1385 [4]: 1.56 µg/mL
- Minimal inhibitory concentration(MIC), T. mentagrophytes B. 32663 [5]: 1.56 µg/mL
- Minimal inhibitory concentration(MIC), C. albicans C1-2 [6]: >100 µg/mL
- Minimal inhibitory concentration(MIC), Cry. neoformans B. 42419 [7]: 0.78 µg/mL
- Minimal inhibitory concentration(MIC), A furnigatus B. 19119 [8]: >100 µg/mL
- Minimal inhibitory concentration(MIC), C. albicans A. 10231 [9]: >100 µg/mL
- Minimal inhibitory concentration(MIC), C. tropicalis A. 13803 [10]: >100 µg/mL
- Minimal inhibitory concentration(MIC), A. niger A. 16404 [11]: >100 µg/mL
- Minimal inhibitory concentration(MIC), T. mentagrophytes A. 9129 [12]: 3.13 µg/mL
- Minimal inhibitory concentration(MIC), T. glabrata B. 16205 [13]: >100 µg/mL
- Minimal inhibitory concentration(MIC), Cry. neoformans IFM. 40092 [14]: 0.20 µg/mL
- Minimal inhibitory concentration(MIC), Cry. neoformans A. 34144 [15]: 0.39 µg/mL

SMILES: FC(OCC1COC(Cn2cncn2)(c2ccc(Cl)cc2Cl)O1)=C(c1ccc(F)cc1)C(F)(F)F (mixture of isomers) [Ex. 87]
- Minimal inhibitory concentration(MIC), C. parapsitosis A. 7330 [1]: >100 µg/mL
- Minimal inhibitory concentration(MIC), C. krusei K. 11655 [2]: >100 µg/mL
- Minimal inhibitory concentration(MIC), C. pseudotropicalis K. 11658 [3]: >100 µg/mL
- Minimal inhibitory concentration(MIC), C. albicans IFO. 1385 [4]: 6.25 µg/mL
- Minimal inhibitory concentration(MIC), T. mentagrophytes B. 32663 [5]: >100 µg/mL
- Minimal inhibitory concentration(MIC), C. albicans C1-2 [6]: >100 µg/mL
- Minimal inhibitory concentration(MIC), Cry. neoformans B. 42419 [7]: 1.56 µg/mL
- Minimal inhibitory concentration(MIC), A furnigatus B. 19119 [8]: >100 µg/mL
- Minimal inhibitory concentration(MIC), C. albicans A. 10231 [9]: >100 µg/mL
- Minimal inhibitory concentration(MIC), C. tropicalis A. 13803 [10]: >100 µg/mL
- Minimal inhibitory concentration(MIC), A. niger A. 16404 [11]: >100 µg/mL
- Minimal inhibitory concentration(MIC), T. mentagrophytes A. 9129 [12]: >100 µg/mL
- Minimal inhibitory concentration(MIC), T. glabrata B. 16205 [13]: >100 µg/mL
- Minimal inhibitory concentration(MIC), Cry. neoformans IFM. 40092 [14]: 0.78 µg/mL
- Minimal inhibitory concentration(MIC), Cry. neoformans A. 34144 [15]: 1.56 µg/mL
